We go through four compounds from patent publication US11179471B2, “Peptide for cytosolic delivery” (priority 2017, dated 2021).

“Also recorded” adds a separate entry of the source. Like-named read-outs stand apart in the source and are kept apart here. Non-standard residues stand in square brackets, D forms with d. No end group written: not given here. hArg = N=C(N)NCCCC[C@H](N)C(=O)O; Aad = N[C@@H](CCCC(=O)O)C(=O)O

For series [1], the system named is mitochondrial membrane of HeLa cells. An excerpt: Mitochondrial membranes are considered to be rich in acidic lipid, as compared with cell membranes. Accordingly, the effects of the above peptides on a mitochondrial membrane were examined by JC-1 assay. A JC-1 reagent emits red (J-aggregate) fluorescence when the mitochondrial membrane is kept normal and the membrane potential is maintained; and the JC-1 reagent emits green (J-monomer) fluorescence when the mitochondrial membrane is damaged and the membrane potential is not kept normal. After HeLa cells were incubated with HAad, HA/E2, or L17E (40 μM) in α-MEM(−) for 1 hour, JC-1 assay was performed. The percentage of cells that emitted red fluorescence was assayed by flow cytometry.

Series [2] is described as follows: Helix content from CD spectra in the presence of POPC/POPG (3:1) liposomes. The series is classed as physicochemical. The settings on record: result in words (FIG. 1). As for the experimental part: The helix content was calculated by the method of Y. H. Chen et al., 1972, based on 222-nm molar ellipticity ([…]) using the following formula: Helicity (%)=−([θ]222+2340)/30300*100.
The helix content of the peptides obtained in Example 1 (L17E, L17E/Q21E, L17Aad, HA/E1, HA/E2, and HAad) was calculated in the presence of POPC/POPG (3:1) liposomes by the method of Y. H. Chen et al., 1972, based on 222-nm molar ellipticity ([θ]222) using the following formula: Helix content (%)=−([θ]222+2340)/30300*100. Further, the CD spectra of the peptides were measured.

Series [3] relates to HeLa cells. As to the kind of experiment: Release of Alexa 488-dextran (10 kDa) into the cytoplasm, confocal microscopy. The series is classed as cell-based. As for the experimental part:
Cells; HeLa, peptides; 40 μM, Alexa 488-dextran (10 kDa); 200 μg/mL, treatment; 1 hr in α-MEM(−).
Cells; HeLa, peptides; 40 μM, Alexa 488-dextran (10 kDa); 200 μg/mL, treatment; 1 hr in α-MEM(−). The results are presented as means ±SE (n=3). **; p<0.01 (Student's t-test).
Cells; HeLa, peptides; 40 μM, Alexa 488-dextran (10 kDa); 200 μg/mL, treatment; 1 hr in α-MEM(−). Results are presented as means±SE (n=3). *; p<0.05, **; p<0.01, ***; p<0.001 (one-way ANOVA followed by the Tukey-Kramer honestly significant difference test (post-hoc test)).
In the presence of each peptide obtained in Example 1 (L17E, L17E/Q21E, HA/E1, HA/E2) (40 μM) or in the absence of the peptides (a control, no peptide), HeLa cells and Alexa 488-dextran (Molecular Probes, 10 kDa) (200 μg/mL) were treated in α-MEM(−) for 1 hour. The cells were washed, and observed with a confocal microscope.
In the presence of each peptide obtained in Example 1 (L17E, L17Aad) (40 μM) or in the absence of the peptides (a control, no peptide), HeLa cells and Alexa 488-dextran (Molecular Probes, 10 kDa) (200 μg/mL) were treated in α-MEM(−) for 1 hour. The cells were washed, and observed with a confocal microscope.
In the presence of each peptide obtained in Example 1 (HAad, HA/E2, L17Aad, L17E) (40 μM) or in the absence of the peptides (a control, no peptide), HeLa cells and Alexa 488-dextran (Molecular Probes, 10 kDa) (200 μg/mL) were treated in α-MEM(−) for 1 hour. The cells were washed, and observed with a confocal microscope.
When HeLa cells were incubated with Alexa 488-dextran (10 kDa) (200 μg/mL) as a macromolecular drug model in the presence of HAad (40 μM) in α-MEM(−) for 1 hour, Alexa 488-dextran release into about 75% of cells (cytosol) was observed. In contrast, when the incubation was performed in the presence of L17E, Alexa 488-dextran release into about 50% of the cells was observed.
HeLa cells, Alexa 488-dextran (Molecular Probes, 10 kDa) (200 μg/mL), and HAad; or HeLa cells, Alexa 488-dextran, (Molecular Probes, 10 kDa) (200 μg/mL), and HAad-homoR (20 μM) were treated in α-MEM(−) for 1 hour. The cells were washed, and observed with a confocal microscope.

Another series deals with NIH3T3 cells. Kind of series: Intracellular release of dextran (10 kDa) in NIH3T3 cells. The settings on record: peptide 40 μM, dextran (10 kDa), DEME(−) medium 1 hour. The series is classed as cell-based. The protocol:
Intracellular release of dextran is more difficult in NIH3T3 cells than in HeLa cells. NIH3T3 cells and dextran (10 kDa) were incubated in the presence of HAad, HA/E2, or L17E (40 μM each) in DEME(−) medium for 1 hour in the same manner as in Example 6.

In series [4] the test system is HeLa cells. As to the kind of experiment: Intracellular release of Alexa 488-labeled human immunoglobulin (IgG, circa 160 kDa). The format is cell-based. The note with it: for cells in which intracellular release of human immunoglobulin was observed: α-MEM(−) 1 hour. As for the experimental part:
The cells and human immunoglobulin fluorescently labeled with Alexa 488 (IgG, circa 160 kDa) (500 μg/mL) were incubated in the presence of HAad, HA/E2, or L17E (40 μM each) in α-MEM(−) medium for 1 hour in the same manner as in Example 6.
The cells and human immunoglobulin fluorescently labeled with Alexa 488 (IgG, circa 160 kDa) (50 μg/mL: 1/10 the volume of Example 8) were incubated in the presence of HAad or L17E (40 μM each) in α-MEM(−) medium for 1 hour.
In the presence of HAad or L17E (20 μM each: ½ the amount used in Examples 8 and 9), the cells and human immunoglobulin fluorescently labeled with Alexa 488 (IgG, circa 160 kDa) (500 μg/mL: the same amount as in Example 8) were incubated in α-MEM(−) medium for 1 hour. […] (In FIG. 9, the intracellular release achieved by treatment with a low concentration of HAad was 2.5 times the release achieved by L17E. With respect to the peptide concentration required to detect the signal of intracellularly released human immunoglobulin in 35% of the cells, the concentration of L17E is 40 μM, and the concentration of HAad is 20 μM, which is half the concentration of L17E.)

The test system of series [5] is HeLa cells transfected with a plasmid encoding loxP-DsRed-loxP-EGFP. As to the kind of experiment: Genetic recombination assay by intracellular delivery of Cre protein (EGFP expression). The format is cell-based. The settings on record: for proportion of GFP-expressing cells: Cre-His6 10 μM, peptide 40 μM, 1 hour, then 24 hours in α-MEM(+); for increase of genetic recombination as compared with no peptide administration: EGFP expression with no release peptide was 9%. The protocol: HeLa cells transfected with a plasmid encoding loxP-DsRed-loxP-EGFP, which were prepared in the same manner as in the Examples of PTL 2, were incubated with His-tag fusion Cre (Cre-Hiss) (10 μM) in the presence of HAad, HA/E2, or L17E (40 μM each) for 1 hour. This system was designed to express EGFP when intracellular release of Cre protein induces genetic recombination. […] The proportions of GFP-expressing cells in the cells treated with HAad, HA/E2, and L17E were 41%, 36%, and 30%, respectively. Considering the fact that the EGFP expression efficiency achieved with no administration of a release peptide was 9%, peptide administration of HAad, HA/E2, and L17E can be considered to increase genetic recombination by 32%, 27%, and […], respectively, as compared with no peptide administration.

A short description of series [6]: Cell viability 24 hours after peptide treatment in the presence of serum (WST-8). The series is classed as cell-based. The note with it: cells (cell line not given); peptide 10 μM, 20 μM and 40 μM; α-MEM(+) 24 hours; WST-8. The protocol:
(§1) After the cells were incubated in the presence of HAad, HA/E2, or L17E (each 10 μM, 20 μM, and 40 μM) in α-MEM(+) medium for 24 hours, the cell viability (%) was evaluated by WST-8 assay (FIG. 14). The cell viability (%) after 24 hours with the use of any peptide at any concentration was almost 100%.
A general note: Tetrazolium assays rely on reduction of a dye to a coloured formazan, in cell work by metabolically active cells.

Another series concerns cells. Described as above. The note with it: 10-40 μM; α-MEM(+) 24 hours. The series is classed as cell-based. As for the experimental part:
as §1

The test system of series [7] is HeLa cells. Kind of series: Nuclear accumulation of NLS-EGFP. The series is classed as cell-based. The settings on record: NLS-EGFP 10 μM; peptide 40 μM; α-MEM(−) 1 hour. The protocol:
The cells and NLS-EGFP (10 μM) were incubated in the presence of HAad or L17E (40 μM each) in α-MEM(−) medium for 1 hour in the same manner as in Example 6. If NLS-EGFP is intracellularly released while maintaining its activity, localization of green fluorescence in the nuclei is observed. […] A high activity of HAad to release endosome-encapsulated substances was also confirmed in this system.

For series [8], the system named is HeLa cells. Kind of series: Release of Alexa 488-dextran (10 kDa) into the cytoplasm, confocal microscopy. The format is cell-based. The note with it: Alexa 488-dextran (10 kDa) 200 μg/mL, 1 hour, read-out: peptide concentration required to detect the signal of intracellularly released Alexa 488-dextran in 50% of the cells.
The mark [9] stands for this setting: HeLa, 40 μM, 1 hour in α-MEM(−), Lipofectamine LTX/pCI complex overnight in α-MEM(+).

By viability is commonly meant the share of living cells, or the viability signal relative to a control.

Regarding `N#CC(C#N)=NNc1ccc(OC(F)(F)F)cc1` [FCCP, carbonyl cyanide-p-trifluoromethoxyphenylhydrazone, reference compound], in series [1], the “effect on mitochondrial membrane (cells emitting red JC-1 fluorescence), in words” value (“effect on mitochondrial membrane” for short) was “changed to emit green fluorescence”.
Consider “H-IWLTALKFLGKAAAKAEAKQELSKL-NH2 [HA/E2, IWLTALX^5FLGX^6AAAX^7AEAX^8QELSX^9L-amide]”, for which the “helicity in the presence of an acidic lipid membrane” value in series [2] is listed as “high helicity”. The “endosome-encapsulated substance (Alexa 488-dextran) releasing activity, in words” value in the series with HeLa cells [3] (peptide 40 μM, Alexa 488-dextran 200 μg/mL, 1 hr, compared with L17E) is on record as “higher endosomal content release activity than L17E; also recorded: Significant outflow; also recorded: equivalent to that of HA/E1; also recorded: significantly higher endosome-encapsulated substance releasing activity than L17E”. Besides, in the series with NIH3T3 cells, the “cells in which intracellular release of dextran was observed” value is recorded as around 25%. For the same compound, the “cells in which intracellular release of human immunoglobulin was observed” value with HeLa cells [4] (peptide 40 μM, IgG 500 μg/mL) is reported as around 45%. In addition, in [5], the “proportion of GFP-expressing cells” value is on record as 36% and the “increase of genetic recombination as compared with no peptide administration” value was 27%. In [1] (setting [9]), the “effect on mitochondrial membrane” value was “no significant difference from the untreated case”. Also, the viability at 24 h in [6] is around 100%. Also, in the series with cells, the “toxicity, in words” value is reported as “no significant toxicity”.
With “H-IWLTALZFLGZAAAZAXAZQXLSZL-amide (H-IWLTAL[hArg]FLG[hArg]AAA[hArg]A[Aad]A[hArg]Q[Aad]LS[hArg]L-NH2; SMILES CC[C@H](C)[C@H](N)C(=O)N[C@@H](Cc1c[nH]c2ccccc12)C(=O)N[C@@H](CC(C)C)C(=O)N[C@H](C(=O)N[C@@H](C)C(=O)N[C@@H](CC(C)C)C(=O)N[C@@H](CCCCNC(=N)N)C(=O)N[C@@H](Cc1ccccc1)C(=O)N[C@@H](CC(C)C)C(=O)NCC(=O)N[C@@H](CCCCNC(=N)N)C(=O)N[C@@H](C)C(=O)N[C@@H](C)C(=O)N[C@@H](C)C(=O)N[C@@H](CCCCNC(=N)N)C(=O)N[C@@H](C)C(=O)N[C@@H](CCCC(=O)O)C(=O)N[C@@H](C)C(=O)N[C@@H](CCCCNC(=N)N)C(=O)N[C@@H](CCC(N)=O)C(=O)N[C@@H](CCCC(=O)O)C(=O)N[C@@H](CC(C)C)C(=O)N[C@@H](CO)C(=O)N[C@@H](CCCCNC(=N)N)C(=O)N[C@@H](CC(C)C)C(N)=O)[C@@H](C)O; listed as Lycosa carolinensis) [HAad-homoR]”, in the series with HeLa cells [3] (peptide 20 μM, Alexa 488-dextran (10 kDa) 200 μg/mL, 1 hour in α-MEM(−)), the “cells in which release of Alexa 488-dextran into the cytoplasm was observed” value was determined as 75%.
For the compound “IWLTALKFLGKHAAKHEAKQQLSKL-NH2 [L17E, IWLTALX^5FLGX^6HAAX^7HEAX^8QQLSX^9L-amide, reference compound]”, in the series on HeLa cells [3] (peptide 40 μM, Alexa 488-dextran (10 kDa) 200 μg/mL, 1 hour in α-MEM(−)), the “cells in which Alexa 488-dextran release into the cytosol was observed” value is reported as “about 50%”. Further, the “cells in which intracellular release of dextran was observed” value with NIH3T3 cells is around 17%. In addition, the “peptide concentration required to detect the signal of intracellularly released human immunoglobulin in 35% of the cells” value with HeLa cells [4] (IgG 500 μg/mL, 1 hour) was determined as 40 µM. The “cells in which intracellular release of human immunoglobulin was observed” value in the series on HeLa cells [4] (peptide 20 μM, IgG 500 μg/mL) is “about 15%”; with HeLa cells [4] (peptide 40 μM, IgG 50 μg/mL), “about 10%”; in the series on HeLa cells [4] (peptide 40 μM, IgG 500 μg/mL), around 35%. Also, the “proportion of GFP-expressing cells” value in [5] came to 30%. The “increase of genetic recombination as compared with no peptide administration” value in [5] came out at 22%. Besides, the “effect on mitochondrial membrane” value in series [1] (setting [9]) was “decreased slightly”. In addition, in the series on HeLa cells [7], the “cells in which localization of NLS-EGFP in the nuclei was observed” value is reported as around 56%. Further, the viability at 24 h in series [6] is around 100%. In the series on cells, the “toxicity, in words” value is “no significant toxicity”. In the series with HeLa cells [8], the EC50 stood at 40 µM.
